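Five compound concentrations were applied to cells in 96-well plates for 48 hours; endpoints were derived by simple linear interpolation of the resulting dose-response curve. Here, GI50 denotes the concentration required for 50% inhibition of growth. TGI denotes the concentration required for complete inhibition of growth.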
Legend:
Assay in all cases: growth of human tumour cells (NCI), 48 h
SK-OV-3 ovarian = test system: SK-OV-3 ovarian
U251 CNS = test system: U251 CNS
BT-549 breast = test system: BT-549 breast
IGROV1 ovarian = test system: IGROV1 ovarian
HCT-116 colon = test system: HCT-116 colon
A498 renal = test system: A498 renal
CCRF-CEM leukemia = test system: CCRF-CEM leukemia
SF-295 CNS = test system: SF-295 CNS
HS 578T breast = test system: HS 578T breast
TK-10 renal = test system: TK-10 renal
SK-MEL-5 melanoma = test system: SK-MEL-5 melanoma
UACC-257 melanoma = test system: UACC-257 melanoma
LOX IMVI melanoma = test system: LOX IMVI melanoma
SNB-75 CNS = test system: SNB-75 CNS
NCI-H460 lung = test system: NCI-H460 lung
NCI-H226 lung = test system: NCI-H226 lung
MOLT-4 leukemia = test system: MOLT-4 leukemia
HOP-62 NSCLC = test system: HOP-62 NSCLC
CAKI-1 renal = test system: CAKI-1 renal
M14 melanoma = test system: M14 melanoma
OVCAR-4 ovarian = test system: OVCAR-4 ovarian
UO-31 renal = test system: UO-31 renal
MALME-3M melanoma = test system: MALME-3M melanoma
DU-145 prostate = test system: DU-145 prostate
MCF7 breast = test system: MCF7 breast
OVCAR-8 ovarian = test system: OVCAR-8 ovarian
OVCAR-3 ovarian = test system: OVCAR-3 ovarian
OVCAR-5 ovarian = test system: OVCAR-5 ovarian
NCI-H23 lung = test system: NCI-H23 lung
HCC-2998 colon = test system: HCC-2998 colon
HCT-15 colon = test system: HCT-15 colon
HT29 colon = test system: HT29 colon
SK-MEL-2 melanoma = test system: SK-MEL-2 melanoma
T-47D breast = test system: T-47D breast
SR leukemia = test system: SR leukemia
MDA-MB-231 breast = test system: MDA-MB-231 breast
COLO 205 colon = test system: COLO 205 colon
PC-3 prostate = test system: PC-3 prostate
NCI/ADR-RES ovarian = test system: NCI/ADR-RES ovarian
MDA-MB-435 = test system: MDA-MB-435
SK-MEL-28 melanoma = test system: SK-MEL-28 melanoma
HOP-92 NSCLC = test system: HOP-92 NSCLC
SNB-19 CNS = test system: SNB-19 CNS
KM12 colon = test system: KM12 colon
SW-620 colon = test system: SW-620 colon
UACC-62 melanoma = test system: UACC-62 melanoma
RPMI-8226 leukemia = test system: RPMI-8226 leukemia
786-0 renal = test system: 786-0 renal
ACHN renal = test system: ACHN renal
K-562 leukemia = test system: K-562 leukemia
SF-539 CNS = test system: SF-539 CNS
SN12C renal = test system: SN12C renal
RXF 393 renal = test system: RXF 393 renal
EKVX NSCLC = test system: EKVX NSCLC
A549 NSCLC = test system: A549 NSCLC
SF-268 CNS = test system: SF-268 CNS
NCI-H522 lung = test system: NCI-H522 lung

CC(=O)C1(c2ccccc2)CCCN(C)CC1 (configuration not stated) was tested, and the TGI (SK-OV-3 ovarian) was > 100 µM, the TGI (U251 CNS) was > 100 µM and the TGI (BT-549 breast) was > 100 µM. For the same compound, the TGI (IGROV1 ovarian) was > 100 µM, the TGI (HCT-116 colon) was > 100 µM and the TGI (A498 renal) was > 100 µM. The TGI (CCRF-CEM leukemia) was > 100 µM, the TGI (SF-295 CNS) was > 100 µM and the TGI (HS 578T breast) was > 100 µM. The TGI (TK-10 renal) was > 100 µM, the TGI (SK-MEL-5 melanoma) was > 100 µM and the TGI (UACC-257 melanoma) was > 100 µM. For the same compound, the TGI (LOX IMVI melanoma) was > 100 µM, the TGI (SNB-75 CNS) was > 100 µM and the TGI (NCI-H460 lung) was > 100 µM. The TGI (NCI-H226 lung) was > 100 µM, the TGI (MOLT-4 leukemia) was > 100 µM and the TGI (HOP-62 NSCLC) was > 100 µM. The TGI (CAKI-1 renal) was > 100 µM, the TGI (M14 melanoma) was > 100 µM and the TGI (OVCAR-4 ovarian) was > 100 µM. The TGI (UO-31 renal) was > 100 µM, the TGI (MALME-3M melanoma) was > 100 µM and the TGI (DU-145 prostate) was > 100 µM. The TGI (MCF7 breast) was > 100 µM, the TGI (OVCAR-8 ovarian) was > 100 µM and the TGI (OVCAR-3 ovarian) was > 100 µM. The TGI (OVCAR-5 ovarian) was > 100 µM, the TGI (NCI-H23 lung) was > 100 µM and the TGI (HCC-2998 colon) was > 100 µM. For the same compound, the TGI (HCT-15 colon) was > 100 µM, the TGI (HT29 colon) was > 100 µM and the TGI (SK-MEL-2 melanoma) was > 100 µM. For the same compound, the TGI (T-47D breast) was > 100 µM, the TGI (SR leukemia) was > 100 µM and the TGI (MDA-MB-231 breast) was > 100 µM. The TGI (COLO 205 colon) was > 100 µM, the TGI (PC-3 prostate) was > 100 µM and the TGI (NCI/ADR-RES ovarian) was > 100 µM. The TGI (MDA-MB-435) was > 100 µM, the TGI (SK-MEL-28 melanoma) was > 100 µM and the TGI (HOP-92 NSCLC) was > 100 µM. For the same compound, the TGI (SNB-19 CNS) was > 100 µM, the TGI (KM12 colon) was > 100 µM and the TGI (SW-620 colon) was > 100 µM. The TGI (UACC-62 melanoma) was > 100 µM and the TGI (RPMI-8226 leukemia) was > 100 µM.
Cn1c(Cc2ccccc2)nc2cc3ccccc3cc21 was tested, and the GI50 (SK-OV-3 ovarian) was 49.6 µM, the TGI (SK-OV-3 ovarian) was > 100 µM and the GI50 (U251 CNS) was 28.2 µM. For the same compound, the TGI (U251 CNS) was > 100 µM, the GI50 (BT-549 breast) was 21.2 µM and the TGI (BT-549 breast) was 45.3 µM. For the same compound, the GI50 (IGROV1 ovarian) was 25.5 µM, the TGI (IGROV1 ovarian) was > 100 µM and the GI50 (HCT-116 colon) was 21 µM. The TGI (HCT-116 colon) was 42.2 µM, the GI50 (786-0 renal) was 26 µM and the TGI (786-0 renal) was 65.1 µM. It also gave a GI50 (CCRF-CEM leukemia) of 15 µM, a TGI (CCRF-CEM leukemia) of 37.6 µM and a GI50 (ACHN renal) of 31.7 µM. The TGI (ACHN renal) was > 100 µM, the GI50 (SF-295 CNS) was 25.5 µM and the TGI (SF-295 CNS) was 75.6 µM. It also gave a GI50 (HS 578T breast) of 22.2 µM, a TGI (HS 578T breast) of 57.7 µM and a GI50 (TK-10 renal) of 47.9 µM. The TGI (TK-10 renal) was > 100 µM, the GI50 (SK-MEL-5 melanoma) was 14.8 µM and the TGI (SK-MEL-5 melanoma) was 29.1 µM. It also gave a GI50 (UACC-257 melanoma) of 26.8 µM, a TGI (UACC-257 melanoma) of 61.9 µM and a GI50 (LOX IMVI melanoma) of 24 µM. The TGI (LOX IMVI melanoma) was 64.7 µM, the GI50 (NCI-H460 lung) was 27.6 µM and the TGI (NCI-H460 lung) was > 100 µM. For the same compound, the GI50 (K-562 leukemia) was 37.4 µM, the TGI (K-562 leukemia) was > 100 µM and the GI50 (NCI-H226 lung) was 22.7 µM. The TGI (NCI-H226 lung) was 56.8 µM, the GI50 (MOLT-4 leukemia) was 32.6 µM and the TGI (MOLT-4 leukemia) was > 100 µM. For the same compound, the GI50 (HOP-62 NSCLC) was 38.3 µM, the TGI (HOP-62 NSCLC) was > 100 µM and the GI50 (CAKI-1 renal) was 35.5 µM. For the same compound, the TGI (CAKI-1 renal) was > 100 µM, the GI50 (SF-539 CNS) was 20.6 µM and the TGI (SF-539 CNS) was 37.4 µM. It also gave a GI50 (M14 melanoma) of 26.4 µM, a TGI (M14 melanoma) of 64.3 µM and a GI50 (OVCAR-4 ovarian) of 70.4 µM. The TGI (OVCAR-4 ovarian) was > 100 µM, the GI50 (UO-31 renal) was 25.7 µM and the TGI (UO-31 renal) was > 100 µM. It also gave a GI50 (SN12C renal) of 18.7 µM, a TGI (SN12C renal) of 39.1 µM and a GI50 (RXF 393 renal) of 35.6 µM. For the same compound, the TGI (RXF 393 renal) was > 100 µM, the GI50 (EKVX NSCLC) was 22.2 µM and the TGI (EKVX NSCLC) was 52.5 µM. It also gave a GI50 (MALME-3M melanoma) of 20.7 µM, a TGI (MALME-3M melanoma) of 50.6 µM and a GI50 (DU-145 prostate) of 26.4 µM. For the same compound, the TGI (DU-145 prostate) was 66.7 µM, the GI50 (MCF7 breast) was 38 µM and the TGI (MCF7 breast) was > 100 µM. The GI50 (OVCAR-8 ovarian) was 24.6 µM, the TGI (OVCAR-8 ovarian) was 63.2 µM and the GI50 (OVCAR-3 ovarian) was 36.4 µM. For the same compound, the TGI (OVCAR-3 ovarian) was > 100 µM, the GI50 (OVCAR-5 ovarian) was 42.5 µM and the TGI (OVCAR-5 ovarian) was > 100 µM. For the same compound, the GI50 (NCI-H23 lung) was 43 µM, the TGI (NCI-H23 lung) was > 100 µM and the GI50 (HCC-2998 colon) was 22.8 µM. For the same compound, the TGI (HCC-2998 colon) was 49.9 µM, the GI50 (HCT-15 colon) was 26.8 µM and the TGI (HCT-15 colon) was > 100 µM. For the same compound, the GI50 (HT29 colon) was 43.3 µM, the TGI (HT29 colon) was > 100 µM and the GI50 (SK-MEL-2 melanoma) was 40.7 µM. For the same compound, the TGI (SK-MEL-2 melanoma) was > 100 µM, the GI50 (T-47D breast) was 44.9 µM and the TGI (T-47D breast) was > 100 µM. For the same compound, the GI50 (SR leukemia) was 18.1 µM, the TGI (SR leukemia) was 48.1 µM and the GI50 (MDA-MB-231 breast) was 16 µM. The TGI (MDA-MB-231 breast) was 37.5 µM, the GI50 (COLO 205 colon) was 37 µM and the TGI (COLO 205 colon) was > 100 µM. It also gave a GI50 (PC-3 prostate) of 18.8 µM, a TGI (PC-3 prostate) of 59.6 µM and a GI50 (NCI/ADR-RES ovarian) of 24.8 µM. For the same compound, the TGI (NCI/ADR-RES ovarian) was 68.7 µM, the GI50 (MDA-MB-435) was 25.2 µM and the TGI (MDA-MB-435) was 80 µM. The GI50 (SK-MEL-28 melanoma) was 37.9 µM, the TGI (SK-MEL-28 melanoma) was > 100 µM and the GI50 (HOP-92 NSCLC) was 10.7 µM. For the same compound, the TGI (HOP-92 NSCLC) was 34.6 µM, the GI50 (SNB-19 CNS) was 39.3 µM and the TGI (SNB-19 CNS) was > 100 µM. For the same compound, the GI50 (KM12 colon) was 23.9 µM, the TGI (KM12 colon) was > 100 µM and the GI50 (SW-620 colon) was 17.2 µM. For the same compound, the TGI (SW-620 colon) was 38.3 µM, the GI50 (UACC-62 melanoma) was 19.6 µM and the TGI (UACC-62 melanoma) was 43.5 µM. For the same compound, the GI50 (A549 NSCLC) was 31.8 µM, the TGI (A549 NSCLC) was > 100 µM and the GI50 (SF-268 CNS) was 34.7 µM. For the same compound, the TGI (SF-268 CNS) was > 100 µM, the GI50 (RPMI-8226 leukemia) was 13.1 µM and the TGI (RPMI-8226 leukemia) was 34.3 µM. The GI50 (NCI-H522 lung) was 34.5 µM and the TGI (NCI-H522 lung) was > 100 µM.

From PubChem BioAssay (NCI)
